Laboratory results published in the supplement of paper PMC11451515.

Test system: SEM cells
Assay: cell viability relative to DMSO control; higher = less cytotoxic
Details: 48 h
Procedure, shortened: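 Viability was expressed as a per-plate percentage of DMSO wells, with cell-free wells as background. Leukemia cells (NOMO1 or SEM at 500 cells/well, P12-Ichikawa at 1000 cells/well) were adapted for at least four passages in each medium and seeded in 1536-well plates (5 μl). Library compounds in DMSO were pin-dosed over an 11-point threefold series from 47 μM to 0.79 nM, and CellTiter-Glo One luminescence was read after 48 h at 37°C.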

[1] = HPLM + 10% dialyzed FBS, 0.000781 µM
[2] = HPLM + 10% dialyzed FBS, 0.00234 µM
[3] = HPLM + 10% dialyzed FBS, 0.00702 µM
[4] = HPLM + 10% dialyzed FBS, 0.0211 µM
[5] = HPLM + 10% dialyzed FBS, 0.0632 µM
[6] = HPLM + 10% dialyzed FBS, 0.19 µM
[7] = HPLM + 10% dialyzed FBS, 0.569 µM
[8] = HPLM + 10% dialyzed FBS, 1.71 µM
[9] = HPLM + 10% dialyzed FBS, 5.12 µM
[10] = HPLM + 10% dialyzed FBS, 15.4 µM
[11] = HPLM + 10% dialyzed FBS, 46.1 µM
[12] = RPMI 5 mM glucose + 10% FBS, 0.000781 µM
[13] = RPMI 5 mM glucose + 10% FBS, 0.00234 µM
[14] = RPMI 5 mM glucose + 10% FBS, 0.00702 µM
[15] = RPMI 5 mM glucose + 10% FBS, 0.0211 µM
[16] = RPMI 5 mM glucose + 10% FBS, 0.0632 µM
[17] = RPMI 5 mM glucose + 10% FBS, 0.19 µM
[18] = RPMI 5 mM glucose + 10% FBS, 0.569 µM
[19] = RPMI 5 mM glucose + 10% FBS, 1.71 µM
[20] = RPMI 5 mM glucose + 10% FBS, 5.12 µM
[21] = RPMI 5 mM glucose + 10% FBS, 15.4 µM
[22] = RPMI 5 mM glucose + 10% FBS, 46.1 µM
[23] = RPMI 5 mM glucose + 10% dialyzed FBS, 0.000781 µM
[24] = RPMI 5 mM glucose + 10% dialyzed FBS, 0.00234 µM
[25] = RPMI 5 mM glucose + 10% dialyzed FBS, 0.00702 µM
[26] = RPMI 5 mM glucose + 10% dialyzed FBS, 0.0211 µM
[27] = RPMI 5 mM glucose + 10% dialyzed FBS, 0.0632 µM
[28] = RPMI 5 mM glucose + 10% dialyzed FBS, 0.19 µM
[29] = RPMI 5 mM glucose + 10% dialyzed FBS, 0.569 µM
[30] = RPMI 5 mM glucose + 10% dialyzed FBS, 1.71 µM
[31] = RPMI 5 mM glucose + 10% dialyzed FBS, 5.12 µM
[32] = RPMI 5 mM glucose + 10% dialyzed FBS, 15.4 µM
[33] = RPMI 5 mM glucose + 10% dialyzed FBS, 46.1 µM

Row | Compound | cell viability [1] [%] | cell viability [2] [%] | cell viability [3] [%] | cell viability [4] [%] | cell viability [5] [%] | cell viability [6] [%] | cell viability [7] [%] | cell viability [8] [%] | cell viability [9] [%] | cell viability [10] [%] | cell viability [11] [%] | cell viability [12] [%] | cell viability [13] [%] | cell viability [14] [%] | cell viability [15] [%] | cell viability [16] [%] | cell viability [17] [%] | cell viability [18] [%] | cell viability [19] [%] | cell viability [20] [%] | cell viability [21] [%] | cell viability [22] [%] | cell viability [23] [%] | cell viability [24] [%] | cell viability [25] [%] | cell viability [26] [%] | cell viability [27] [%] | cell viability [28] [%] | cell viability [29] [%] | cell viability [30] [%] | cell viability [31] [%] | cell viability [32] [%] | cell viability [33] [%]
1 | O=[N+]([O-])c1ccc(Nc2ccccc2-c2ccccc2)c2nonc12 | 71.9 | 79.4 | 90.5 | 84.4 | 63.4 | 62 | 68.8 | 62.8 | 78.1 | 48.7 | 26.4 | 93.5 | 91.7 | 100 | 102 | 77.6 | 52.2 | 83.8 | 48.9 | 61.6 | 32.2 | 27 | 72.6 | 70.5 | 80.5 | 90.9 | 58.8 | 62.8 | 64.8 | 30.9 | 54.4 | 42.3 | 26.1
2 | CN1\N=N/C2=C(N=C[N]2C1=O)C(N)=O | 112 | 114 | 132 | 111 | 121 | 88.2 | 60.9 | 57.7 | 51.2 | 38.7 | 25.3 | 85.8 | 102 | 106 | 86.2 | 88.5 | 67.7 | 47.6 | 50.6 | 41.9 | 28.4 | 24.1 | 105 | 115 | 139 | 116 | 113 | 78.7 | 58.7 | 37.4 | 31.9 | 28.9 | 20.5
3 | O=[S+]([O-])(/N=C/c1c(O)ccc2ccccc12)c1cccs1 | 97 | 114 | 101 | 109 | 110 | 110 | 112 | 66.8 | 104 | 88.3 | 81.9 | 113 | 116 | 108 | 106 | 113 | 120 | 102 | 74.3 | 93.3 | 94.5 | 68.5 | 98.7 | 136 | 109 | 112 | 131 | 118 | 115 | 79.5 | 98.2 | 91.1 | 98.7
4 | CCC[C@@H](C=O)NC(=O)[C@H](CC(C)C)NC(=O)[C@H](CC(C)C)NC(=O)OCc1ccccc1 | 107 | 111 | 106 | 121 | 124 | 117 | 132 | 92.7 | 8.49 | 8.38 | 6.36 | 105 | 103 | 125 | 111 | 129 | 130 | 55.3 | 8.42 | 8.05 | 8.14 | 6.25 | 97.6 | 101 | 120 | 116 | 134 | 119 | 118 | 45.7 | 9.18 | 8.63 | 6.53
5 | COc1nccc(-c2c(-c3ccc(F)cc3)ncn2C2CCC(O)CC2)n1 (stereo unspecified) | 124 | 123 | 132 | 128 | 122 | 105 | 125 | 113 | 106 | 116 | 36.1 | 102 | 116 | 97.3 | 103 | 96.6 | 56.7 | 53.4 | 63.9 | 63.8 | 47.9 | 12.2 | 103 | 126 | 116 | 114 | 123 | 127 | 111 | 112 | 94.9 | 87.9 | 26.8
6 | COc1ccc(CC2c3cc(OC)c(OC)cc3CC[N+]2(C)CCC(=O)OCCCCCOC(=O)CC[N+]2(C)CCc3cc(OC)c(OC)cc3C2Cc2ccc(OC)c(OC)c2)cc1OC (stereo unspecified) | 81.2 | 80.8 | 92.9 | 98.4 | 80.3 | 94 | 103 | 101 | 97.1 | 22.6 | 88 | 81 | 77.6 | 94 | 78.5 | 81.1 | 99.2 | 91.2 | 102 | 92.1 | 13.2 | 85.1 | 75 | 73.3 | 93.8 | 96 | 79.9 | 93.8 | 104 | 103 | 91.1 | 22.1 | 80.2
7 | NCCCC(O)(P(=O)(O)O)P(=O)(O)O.O.O.O.[Na+] | 141 | 106 | 118 | 120 | 122 | 118 | 125 | 110 | 71 | 56.6 | 15.4 | 124 | 125 | 109 | 130 | 112 | 122 | 99.3 | 101 | 22.5 | 16.6 | 6.56 | 125 | 111 | 133 | 118 | 122 | 113 | 110 | 116 | 37.5 | 27.9 | 7.61
